# Tests used:
# HT-1080 = assay: Modulatory profiling: Alamar Blue viability, lethal compound cotreated with death modulator (EC50, AUC); type: cell-based; design: AUC, modulator HT.3MA / AUC, modulator HT.ALLN / AUC HT.ATA / AUC HT.ActD / AUC HT.BHA / AUC HT.BHT / AUC HT.BocD / AUC HT.CHX / AUC HT.Co2+ / AUC HT.DPQ / AUC HT.EGTA / AUC HT.Lmim / AUC HT.NAD+ / AUC HT.Nec-1 / AUC HT.SP600125 / AUC HT.TLCK / AUC HT.U0126: unit not given beside the values; conditions: for AUC HT.ATA: HT-1080, modulator ATA; for AUC HT.ActD: HT-1080, modulator ActD; for AUC HT.BHA: HT-1080, modulator BHA; for AUC HT.BHT: HT-1080, modulator BHT; for AUC HT.BocD: HT-1080, modulator BocD; for AUC HT.CHX: HT-1080, modulator CHX; for AUC HT.Co2+: HT-1080, modulator Co2+; for AUC HT.CspA: HT-1080, modulator CspA; for AUC HT.DPQ: HT-1080, modulator DPQ; for AUC HT.EGTA: HT-1080, modulator EGTA; for AUC HT.Gd3+: HT-1080, modulator Gd3+; for AUC HT.LNAME: HT-1080, modulator LNAME; for AUC HT.Lmim: HT-1080, modulator Lmim; for AUC HT.NAD+: HT-1080, modulator NAD+; for AUC HT.NMMA: HT-1080, modulator NMMA; for HT.atoc (AUC) / HT.bCarotene (AUC) / HT.deferox (AUC) / HT.digoxin (AUC) / HT.trolox (AUC) / HT.zVAD (AUC): HT-1080; for HT.atoc (AUC): modulator atoc; for HT.bCarotene (AUC): modulator bCarotene; for HT.deferox (AUC): modulator deferox; for HT.digoxin (AUC): modulator digoxin; for HT.trolox (AUC): modulator trolox; for HT.zVAD (AUC): modulator zVAD
# BJeLR = assay: as above; type: cell-based, human; design: AUC, modulator BJ.Gd3+ / AUC, modulator BJ.LNAME / AUC, modulator BJ.Lmin / AUC, modulator BJ.3MA / AUC, modulator BJ.ALLN / AUC, modulator BJ.Boc D / AUC, modulator BJ.CHX / AUC, modulator BJ.Co2+ / AUC, modulator BJ.Nec-1 / AUC, modulator BJ.Pepstatin / AUC, modulator BJ.TLCK / AUC, modulator BJ.atoc / AUC, modulator BJ.trolox / AUC, modulator BJ.zVAD: unit not given beside the values; conditions: BJeLR cells, modulatory profile value (AUC); for AUC, modulator BJ.3MA: lethal compound cotreated with modulator 3MA; for AUC, modulator BJ.ALLN: lethal compound cotreated with modulator ALLN; for AUC, modulator BJ.Boc D: lethal compound cotreated with modulator Boc D; for AUC, modulator BJ.CHX: lethal compound cotreated with modulator CHX; for AUC, modulator BJ.Co2+: lethal compound cotreated with modulator Co2+; for AUC, modulator BJ.DPQ: lethal compound cotreated with modulator DPQ; for AUC, modulator BJ.Gd3+: lethal compound cotreated with modulator Gd3+; for AUC, modulator BJ.LNAME: lethal compound cotreated with modulator LNAME; for AUC, modulator BJ.Lmin/NAD+: lethal compound cotreated with modulator Lmin/NAD+; for AUC, modulator BJ.Lmin: lethal compound cotreated with modulator Lmin; for AUC, modulator BJ.NAD+: lethal compound cotreated with modulator NAD+; for AUC, modulator BJ.NMMA: lethal compound cotreated with modulator NMMA; for AUC, modulator BJ.Nec-1: lethal compound cotreated with modulator Nec-1; for AUC, modulator BJ.Pepstatin: lethal compound cotreated with modulator Pepstatin; for AUC, modulator BJ.TLCK: lethal compound cotreated with modulator TLCK
Compound,AUC HT.ATA (HT-1080),AUC HT.ActD (HT-1080),AUC HT.BHA (HT-1080),AUC HT.BHT (HT-1080),AUC HT.BocD (HT-1080),AUC HT.CHX (HT-1080),AUC HT.Co2+ (HT-1080),AUC HT.CspA (HT-1080),AUC HT.DPQ (HT-1080),AUC HT.EGTA (HT-1080),AUC HT.Gd3+ (HT-1080),AUC HT.LNAME (HT-1080),AUC HT.Lmim (HT-1080),AUC HT.NAD+ (HT-1080),AUC HT.NMMA (HT-1080),HT.atoc (AUC) (HT-1080),HT.bCarotene (AUC) (HT-1080),HT.deferox (AUC) (HT-1080),HT.digoxin (AUC) (HT-1080),HT.trolox (AUC) (HT-1080),also measured
C=CCC1(Cl)C(=O)C(Cl)=C(n2ccnc2)C1(OC)OC (stereo not drawn) [CIL76],0.04513,0.04286,0.000578,−0.08655,−0.02767,0.1505,0.1531,−0.005998,0.01554,−0.02151,−0.0293,0.0222,0.007964,0.00781,−0.007942,0.003265,−0.00713,0.1376,0.01032,−0.02707,"HT.zVAD (AUC) (HT-1080): 0.032; AUC, modulator BJ.3MA (BJeLR): −0.03638; AUC, modulator BJ.ALLN (BJeLR): −0.0536; AUC, modulator BJ.Boc D (BJeLR): 0.03237; AUC, modulator BJ.CHX (BJeLR): 0.2608; AUC, modulator BJ.Co2+ (BJeLR): 0.1676; AUC, modulator BJ.DPQ (BJeLR): 0.007351; AUC, modulator BJ.Gd3+ (BJeLR): 0.01565; AUC, modulator BJ.LNAME (BJeLR): 0.004345; AUC, modulator BJ.Lmin/NAD+ (BJeLR): −0.02656; AUC, modulator BJ.Lmin (BJeLR): −0.005829; AUC, modulator BJ.NAD+ (BJeLR): 0.004895; AUC, modulator BJ.NMMA (BJeLR): −0.01937; AUC, modulator BJ.Nec-1 (BJeLR): −0.0283; AUC, modulator BJ.Pepstatin (BJeLR): 0.0213; AUC, modulator BJ.TLCK (BJeLR): −0.008689"
COc1c2c(cc3c1C(CC(=O)/C=C/c1ccccc1)[N+](C)(C)CC3)OCO2 (stereo not drawn) [CIL77],0.05492,0.0959,−0.008714,−0.07998,−0.02828,0.1436,0.1261,−0.05791,0.003496,−0.00345,−0.0368,0.01693,0.02573,0.003357,−0.01509,0.02076,−0.005078,0.09145,−0.01405,−0.01064,"HT.zVAD (AUC) (HT-1080): 0.02554; AUC, modulator BJ.3MA (BJeLR): −0.05728; AUC, modulator BJ.ALLN (BJeLR): 0.01826; AUC, modulator BJ.Boc D (BJeLR): 0.05622; AUC, modulator BJ.CHX (BJeLR): 0.2548; AUC, modulator BJ.Co2+ (BJeLR): 0.1866; AUC, modulator BJ.DPQ (BJeLR): −0.009273; AUC, modulator BJ.Gd3+ (BJeLR): −0.007344; AUC, modulator BJ.LNAME (BJeLR): 0.03349; AUC, modulator BJ.Lmin/NAD+ (BJeLR): 0.04982; AUC, modulator BJ.Lmin (BJeLR): −0.04848; AUC, modulator BJ.NAD+ (BJeLR): −0.05677; AUC, modulator BJ.NMMA (BJeLR): −0.02771; AUC, modulator BJ.Nec-1 (BJeLR): −0.06543; AUC, modulator BJ.Pepstatin (BJeLR): 0.07338; AUC, modulator BJ.TLCK (BJeLR): −0.05565"
C[C@H]1CCC[C@]2(C)C[C@H]3OC(=O)[C@H](CN4CCCC4)[C@H]3C=C12 [CIL80],0.05781,0.08002,0.009452,−0.01971,−0.02337,0.09741,0.112,0.01161,−0.01717,0.0199,−0.03226,0.01972,0.05449,0.01251,−0.01256,0.004877,0.003874,0.1672,0.06493,−0.01954,"HT.zVAD (AUC) (HT-1080): 0.03135; AUC, modulator BJ.3MA (BJeLR): 0.00654; AUC, modulator BJ.ALLN (BJeLR): −0.004769; AUC, modulator BJ.Boc D (BJeLR): 0.008783; AUC, modulator BJ.CHX (BJeLR): 0.1351; AUC, modulator BJ.Co2+ (BJeLR): 0.09506; AUC, modulator BJ.DPQ (BJeLR): −0.03368; AUC, modulator BJ.Gd3+ (BJeLR): 0.01802; AUC, modulator BJ.LNAME (BJeLR): 0.02901; AUC, modulator BJ.Lmin/NAD+ (BJeLR): 0.09271; AUC, modulator BJ.Lmin (BJeLR): 0.01639; AUC, modulator BJ.NAD+ (BJeLR): −0.008515; AUC, modulator BJ.NMMA (BJeLR): −3.885E−05; AUC, modulator BJ.Nec-1 (BJeLR): −0.01593; AUC, modulator BJ.Pepstatin (BJeLR): 0.03142; AUC, modulator BJ.TLCK (BJeLR): −0.006094"
CC(C(NNC(=O)c1ccc(C(F)(F)F)cc1)c1ccc(Br)cc1)[N+](=O)[O-] (stereo not drawn) [CIL87],0.1137,−0.007586,−0.003358,−0.08317,−0.007134,0.0673,0.03163,−0.05358,−0.02562,0.005305,−0.02756,0.005257,−0.002116,−0.001926,−0.01237,0.05929,0.01927,0.07034,0.04582,−0.03188,"HT.zVAD (AUC) (HT-1080): 0.02258; AUC, modulator BJ.3MA (BJeLR): −0.002764; AUC, modulator BJ.ALLN (BJeLR): −0.08721; AUC, modulator BJ.Boc D (BJeLR): −0.0134; AUC, modulator BJ.CHX (BJeLR): 0.295; AUC, modulator BJ.Co2+ (BJeLR): 0.1416; AUC, modulator BJ.DPQ (BJeLR): −0.03202; AUC, modulator BJ.Gd3+ (BJeLR): 0.0149; AUC, modulator BJ.LNAME (BJeLR): 0.02319; AUC, modulator BJ.Lmin/NAD+ (BJeLR): 0.07639; AUC, modulator BJ.Lmin (BJeLR): 0.0007714; AUC, modulator BJ.NAD+ (BJeLR): −0.03293; AUC, modulator BJ.NMMA (BJeLR): −0.007384; AUC, modulator BJ.Nec-1 (BJeLR): −0.0482; AUC, modulator BJ.Pepstatin (BJeLR): −0.03283; AUC, modulator BJ.TLCK (BJeLR): 0.003206"

# Reference: patent US10947188B2, “Small molecule ferroptosis inducers” (THE TRUSTEES OF COLUMBIA UNIVERSITY IN THE CITY OF NEW YORK, priority 2016, dated 2021)
